Results on 1 compound are retold here after EPA's ToxValDB 9.5 (doi:10.2903/j.efsa.2008.147r).

Where only a bound is given, the exact number is not on record here.

One series concerns Aphidius rhopalosiphi. To be noted: not reported.
For a further series, the system named is Apis mellifera. To be noted: acute; duration: 48 hours; dermal; mortality.
The subject of a further series is Daphnia magna. To be noted: chronic/long-term; duration: 21 days; reproduction.
The test system of a further series is Canidae. To be noted: chronic, oral, Dog Other, clinical signs.

As a reminder, the NOAEL is the highest dose or exposure tested at which no adverse effect was seen. Consider `CC[C@H](C)[C@H]1O[C@]2(C=C[C@@H]1C)C[C@@H]1C[C@@H](C/C=C(\C)[C@@H](O[C@H]3C[C@H](OC)[C@@H](O[C@H]4C[C@H](OC)[C@@H](O)[C@H](C)O4)[C@H](C)O3)[C@@H](C)/C=C/C=C3\CO[C@@H]4[C@H](O)C(C)=C[C@@H](C(=O)O1)[C@]34O)O2.CO[C@H]1C[C@H](O[C@H]2[C@H](C)O[C@@H](O[C@@H]3/C(C)=C/C[C@@H]4C[C@@H](C[C@]5(C=C[C@H](C)[C@@H](C(C)C)O5)O4)OC(=O)[C@@H]4C=C(C)[C@@H](O)[C@H]5OC/C(=C\C=C\[C@@H]3C)[C@]54O)C[C@@H]2OC)O[C@@H](C)[C@@H]1O` [Abamectin], for which the LEL in the series with Aphidius rhopalosiphi (mortality) and with Aphidius rhopalosiphi (reproduction) was 4.32 g/ha throughout. Moreover, the LC50 with Tagia sp. (acute, duration: 14 days, mortality) was 33 mg/kg; in the series on Anas platyrhynchos (short-term, oral, feed, mortality) it was 48.6 mg/kg-day; in the series on Oncorhynchus mykiss (acute, duration: 96 hours, mortality) it was 3.6 ng/mL. Moreover, the NOEC with Tagia sp. (chronic/long-term) is more than 0.72 mg/kg; with Anas platyrhynchos (reproductive, M), 1.33 mg/kg-day; in the series with Daphnia magna, 1e-05 mg/L; in the series on Rattus norvegicus (chronic) it was 0.12 mg/kg-day; in the series on Oncorhynchus mykiss (chronic/long-term, duration: 28 days) it was 0.00052 mg/L. Also, the LD50 was not above 77 mg/kg-day with Anas platyrhynchos (acute, oral, unspecified, mortality); 0.0022 µg/piece in the series with Apis mellifera; 8.7 mg/kg-day with Rattus norvegicus (acute, oral, mortality). Besides, the NOAEL with Rattus norvegicus (acute, clinical signs) turned out to be 0.5 mg/kg-day; with Canidae (duration: 18 weeks) it was 0.25 mg/kg-day; in the series on Canidae (duration: 53 weeks), 0.25 mg/kg-day.
